Reference: patent US8741917B2, “Benzo [C] phenanthridines as antimicrobial agents” (Rutgers, The State University of New Jersey, priority 2009, dated 2014)
Like-named read-outs stand apart in the source and are kept apart here.

Legend:
MRSA = assay: Planktonic antibacterial broth microdilution assay; details: Staphylococcus aureus
Bacillus subtilis FtsZ [1] = target: T1, Bacillus subtilis FtsZ (Bacillus subtilis, UniProt P17865); assay: 90°-angle light scattering assay of FtsZ polymerization; type: biochemical; details: compound 40 μM; for Maximal Light Scattering: readout of extent of polymerization, no compound: 3.40; for Time to Reach Half-Maximal Light Scattering: readout of rate of polymerization, no compound: 91.6
Description: B[c]P inhibition of FtsZ polymerization can be tested using a 90°-angle light scattering assay for monitoring drug impact on FtsZ polymerization. This assay is premised on the increased light scattering properties of polymeric FtsZ relative to the monomeric form of the protein. To this end, the light scattering at 600 nm of 5 μM FtsZ is continuously monitored under polymerization conditions in the absence or presence of a B[c]P compound at concentrations ranging from 40 to 80 μM.
Polymerization is initiated by addition of 0.5 mM GTP. The rate and extent of FtsZ polymerization can be quantified by analyzing the light scattering profiles to derive maximal light scattering values (which provide a readout of the extent of polymerization) as well as the times required to reach half-maximal light scattering values (which provide a readout of the rate of polymerization).

Staphylococcus aureus = assay: Planktonic antibacterial broth microdilution assay; type: cell-based; details: 24 hours continuous drug exposure
[2] = system: Mycobacterium tuberculosis; assay: Planktonic antibacterial broth microdilution assay; type: cell-based; details: 24 hours continuous drug exposure
Enterococcus faecalis = assay: Planktonic antibacterial broth microdilution assay; type: cell-based; details: 24 hours continuous drug exposure
Bacillus subtilis = assay: Planktonic antibacterial broth microdilution assay; type: cell-based; details: 24 hours continuous drug exposure
Bacillus subtilis FtsZ [3] = target: T1, Bacillus subtilis FtsZ; assay: Fluorescence-based competition binding assay (displacement of BODIPY-GTPγS from FtsZ); details: FIG. 8; reduction reflects binding to FtsZ and release of BODIPY-GTPγS
Source text: B[c]P binding to FtsZ can be tested using a fluorescence-based competition binding assay using purified FtsZ and a commercially available GTPγS analog where the nucleotide is covalently conjugated via its sulfur atom to the fluorescent dye BODIPY (DIPYrromethene BOron difluoride). Upon binding to FtsZ, BODIPY-GTPγS undergoes a dramatic increase in fluorescence emission intensity (I) at 510 nm. This binding-induced change in BODIPY-GTPγS fluorescence provides the dissociation constant (Kd-GTP) of the nucleotide for the protein through analysis of fluorescence titration profiles with the following formalism, which is predicated on a one-to-one binding stoichiometry:
[formula] I0 and I are the fluorescence emission intensities of BODIPY-GTPγS in the absence and presence of a given FtsZ concentration, respectively, I∞ is the fluorescence emission intensity of BODIPY-GTPγS in the presence of an infinite FtsZ concentration, and [GTP]tot and [FtsZ]tot are the total concentrations of BODIPY-GTPγS and FtsZ, respectively. […]
I0 and I are the fluorescence emission intensities of the FtsZ-BODIPY-GTPγS complex in the absence and presence of a given compound concentration, respectively, I∞ is the fluorescence emission intensity of the FtsZ-BODIPY-GTPγS complex in the presence of infinite compound concentration, [Compd]tot is the total compound concentration, and p is the Hill slope. […]

T1 sequence (P17865 whole entry): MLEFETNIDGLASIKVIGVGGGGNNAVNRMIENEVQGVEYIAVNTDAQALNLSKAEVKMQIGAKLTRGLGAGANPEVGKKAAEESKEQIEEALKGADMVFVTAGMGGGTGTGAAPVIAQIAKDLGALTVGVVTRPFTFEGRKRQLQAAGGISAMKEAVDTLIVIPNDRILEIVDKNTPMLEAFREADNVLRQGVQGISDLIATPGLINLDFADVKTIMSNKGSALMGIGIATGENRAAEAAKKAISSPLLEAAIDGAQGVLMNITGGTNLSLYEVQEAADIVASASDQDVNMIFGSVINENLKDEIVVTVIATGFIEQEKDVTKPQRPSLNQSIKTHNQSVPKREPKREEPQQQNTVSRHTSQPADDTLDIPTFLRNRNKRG

COc1cc2c(ccc3c4ccc5c(c4c[n+](C)c23)OCO5)c(-c2ccccc2)c1OC [Example 4]
MIC (MRSA; read-out: MIC vs. MRSA): < 16 µg/mL

COc1cc2c(ccc3c4ccc(OC)c(OC(C)C)c4c[n+](C)c23)c(-c2ccccc2)c1OC [Example 8]
MIC (MRSA; read-out: MIC vs. MRSA): < 16 µg/mL

COc1cc2c(ccc3c4ccc(OC)c(OC)c4c[n+](C)c23)c(-c2ccc(-c3ccccc3)cc2)c1OC [Example 7]
MIC (MRSA; read-out: MIC vs. MRSA): < 16 µg/mL

COc1cc2c(ccc3c4ccc(OC)c(OC)c4c[n+](C)c23)c(-c2ccoc2)c1OC [Example 17]
MIC (MRSA; read-out: MIC vs. MRSA): < 16 µg/mL

COc1ccc2c(c1OC)CN(C)c1c-2ccc2c(C3CC3)c(OC)c(OC)cc12 [Example 21]
MIC (MRSA; read-out: MIC vs. MRSA): < 16 µg/mL

COc1ccc2c(c1OC)C(N)N(C)c1c-2ccc2c(-c3ccc(-c4ccccc4)cc3)c(OC)c(OC)cc12 (stereo not drawn) [Example 24]
MIC (MRSA; read-out: MIC vs. MRSA): < 16 µg/mL

COc1cc2c(ccc3c4ccc(OC)c(OC)c4c[n+](C)c23)c(-c2cccnc2)c1OC [Example 22]
MIC (MRSA; read-out: MIC vs. MRSA): < 16 µg/mL

COc1ccc2c(c1OC)CN(C)c1c-2ccc2c(-c3ccc(-c4ccccc4)cc3)c(OC)c(OC)cc12 [Example 20]
MIC (MRSA; read-out: MIC vs. MRSA): < 16 µg/mL

COc1cc2c(ccc3c4ccc(OC)c(OC)c4c[n+](C)c23)c(C2=CCCCC2)c1OC [Example 9]
MIC (MRSA; read-out: MIC vs. MRSA): < 16 µg/mL

COc1cc(-c2c(OC)c(OC)cc3c2ccc2c4ccc(OC)c(OC)c4c[n+](C)c32)cc(OC)c1OC [Example 15]
MIC (MRSA; read-out: MIC vs. MRSA): < 16 µg/mL

COc1cc2c(ccc3c4ccc5c(c4c[n+](C)c23)OCO5)c(Cc2ccccc2)c1OC [Example 5]
MIC (MRSA; read-out: MIC vs. MRSA): < 16 µg/mL

COc1cc2c(ccc3c4ccc5c(c4c[n+](C)c23)OCO5)c(-c2ccc(-c3ccccc3)cc2)c1OC [Example 3, 8-Biphenyl-4-yl-9,10-dimethoxy-12-methyl-1,3-dioxa-12-azoniacyclopenta[a]chrysene chloride]
Maximal Light Scattering (Bacillus subtilis FtsZ [1]): 1.76 a.u. | Time to Reach Half-Maximal Light Scattering (Bacillus subtilis FtsZ [1]): 600.5 s | MIC (Staphylococcus aureus): 2 µg/mL | MIC [2]: 4 µg/mL | MIC (Enterococcus faecalis): 16 µg/mL | MIC (Bacillus subtilis): 2 µg/mL | fluorescence of FtsZ-bound BODIPY-GTPγS upon addition of compound (Bacillus subtilis FtsZ [3]): decreases | MIC (MRSA; 24 h, read-out: MRSA MIC): 8 µg/mL | MIC (MRSA; read-out: MIC vs. MRSA): < 16 µg/mL

COc1cc2c(ccc3c4ccc(OC)c(OC)c4c[n+](C)c23)c(C2CCCCC2)c1OC [Example 10]
MIC (MRSA; read-out: MIC vs. MRSA): < 16 µg/mL

COc1cc2ccc3c4ccc5c(c4c[n+](C)c3c2cc1OC)OCO5 [Comparative Example 1, reference compound]
MIC (MRSA; read-out: MIC vs. MRSA): 32 µg/mL

COc1cc2c(ccc3c4ccc(OC)c(OC)c4c[n+](C)c23)c(-c2ccccc2)c1OC [Example 12]
MIC (MRSA; read-out: MIC vs. MRSA): < 16 µg/mL

COc1cc2c(-c3ccc(-c4ccccc4)cc3)cc3c4ccc(OC)c(OC)c4c[n+](C)c3c2cc1OC [Example 23]
MIC (MRSA; read-out: MIC vs. MRSA): < 16 µg/mL

COc1cc2ccc3c4ccc(OC)c(OC)c4c[n+](C)c3c2cc1OC [Comparative Example 2, reference compound]
MIC (MRSA; read-out: MIC vs. MRSA): 64 µg/mL

COc1cc2c(-c3ccc(-c4ccccc4)cc3)cc3c4ccc5c(c4c[n+](C)c3c2cc1OC)OCO5 [Example 13]
MIC (MRSA; read-out: MIC vs. MRSA): < 16 µg/mL

COc1cc2c(ccc3c4ccc(OC)c(OC)c4c[n+](C)c23)c(-c2ccc(N(C)C)cc2)c1OC [Example 16]
MIC (MRSA; read-out: MIC vs. MRSA): < 16 µg/mL

COc1ccc2c(c[n+](C)c3c4cc5c(cc4ccc23)OCO5)c1OC [Chelerythrine]
Maximal Light Scattering (Bacillus subtilis FtsZ [1]): 2.83 a.u. | Time to Reach Half-Maximal Light Scattering (Bacillus subtilis FtsZ [1]): 205.3 s | MIC (Staphylococcus aureus): 8 µg/mL | MIC [2]: 8 µg/mL | MIC (Enterococcus faecalis): 32 µg/mL | MIC (Bacillus subtilis): 4 µg/mL | MIC (MRSA; 24 h, read-out: MRSA MIC): 16 µg/mL

COc1ccc2c(c1OC)C(OC)N(C)c1c-2ccc2c(-c3ccc(-c4ccccc4)cc3)c(OC)c(OC)cc12 (stereo not drawn) [Example 25]
MIC (MRSA; read-out: MIC vs. MRSA): < 16 µg/mL

COc1ccc(-c2c(OC)c(OC)cc3c2ccc2c4ccc5c(c4c[n+](C)c32)OCO5)cc1 [Example 6]
MIC (MRSA; read-out: MIC vs. MRSA): < 16 µg/mL

COc1cc2c(ccc3c4ccc(OC)c(OC)c4c[n+](C)c23)c(-c2ccc(CCN3CCOCC3)cc2)c1OC [Example 19]
MIC (MRSA; read-out: MIC vs. MRSA): < 16 µg/mL

C[n+]1cc2c3c(ccc2c2ccc4cc5c(cc4c21)OCO5)OCO3 [Sanguinarine]
MIC (Staphylococcus aureus): 8 µg/mL | MIC [2]: 8 µg/mL | MIC (Enterococcus faecalis): 32 µg/mL | MIC (Bacillus subtilis): 4 µg/mL | MIC (MRSA; 24 h, read-out: MRSA MIC): 16 µg/mL

COc1cc2c(-c3ccccc3)cc3c4ccc(OC)c(OC)c4c[n+](C)c3c2cc1OC [Example 14]
MIC (MRSA; read-out: MIC vs. MRSA): < 16 µg/mL

COc1cc2c(ccc3c4ccc(OC)c(OC)c4c[n+](C)c23)c(C2CC2)c1OC [Example 11]
MIC (MRSA; read-out: MIC vs. MRSA): < 16 µg/mL

COc1cc2c(ccc3c4ccc(OC)c(OC)c4c[n+](C)c23)c(-c2ccc(S(=O)(=O)N(C)C)cc2)c1OC [Example 18]
MIC (MRSA; read-out: MIC vs. MRSA): < 16 µg/mL
